# Laboratory results as given in patent US12685735B2 (Foghorn Therapeutics Inc., priority 2020, dated 2026).
# Key:
# BRM = BRM (Homo sapiens, UniProt P51531); test: ATPase catalytic activity assay of BRM (ADP-Glo); assay type: biochemical; settings: for IC50: read-out: BRM IC50 (μM)*
# In short: (§1)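 In vitro biochemical ATPase assay; product ADP detected after removing leftover ATP and reconverting ADP to ATP for a luciferase signal.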
# BRG-1 = BRG-1 (Homo sapiens, UniProt P51532); test: ATPase catalytic activity assay of BRG-1 (ADP-Glo); assay type: biochemical; settings: ATPase catalytic activity, ADP-Glo; for IC50: read-out: BRG1 IC50 (μM)*; for Emax: read-out: BRG1 Max % Inhibition
# In short: as §1
# Sequence of BRG-1 (P51532 whole entry): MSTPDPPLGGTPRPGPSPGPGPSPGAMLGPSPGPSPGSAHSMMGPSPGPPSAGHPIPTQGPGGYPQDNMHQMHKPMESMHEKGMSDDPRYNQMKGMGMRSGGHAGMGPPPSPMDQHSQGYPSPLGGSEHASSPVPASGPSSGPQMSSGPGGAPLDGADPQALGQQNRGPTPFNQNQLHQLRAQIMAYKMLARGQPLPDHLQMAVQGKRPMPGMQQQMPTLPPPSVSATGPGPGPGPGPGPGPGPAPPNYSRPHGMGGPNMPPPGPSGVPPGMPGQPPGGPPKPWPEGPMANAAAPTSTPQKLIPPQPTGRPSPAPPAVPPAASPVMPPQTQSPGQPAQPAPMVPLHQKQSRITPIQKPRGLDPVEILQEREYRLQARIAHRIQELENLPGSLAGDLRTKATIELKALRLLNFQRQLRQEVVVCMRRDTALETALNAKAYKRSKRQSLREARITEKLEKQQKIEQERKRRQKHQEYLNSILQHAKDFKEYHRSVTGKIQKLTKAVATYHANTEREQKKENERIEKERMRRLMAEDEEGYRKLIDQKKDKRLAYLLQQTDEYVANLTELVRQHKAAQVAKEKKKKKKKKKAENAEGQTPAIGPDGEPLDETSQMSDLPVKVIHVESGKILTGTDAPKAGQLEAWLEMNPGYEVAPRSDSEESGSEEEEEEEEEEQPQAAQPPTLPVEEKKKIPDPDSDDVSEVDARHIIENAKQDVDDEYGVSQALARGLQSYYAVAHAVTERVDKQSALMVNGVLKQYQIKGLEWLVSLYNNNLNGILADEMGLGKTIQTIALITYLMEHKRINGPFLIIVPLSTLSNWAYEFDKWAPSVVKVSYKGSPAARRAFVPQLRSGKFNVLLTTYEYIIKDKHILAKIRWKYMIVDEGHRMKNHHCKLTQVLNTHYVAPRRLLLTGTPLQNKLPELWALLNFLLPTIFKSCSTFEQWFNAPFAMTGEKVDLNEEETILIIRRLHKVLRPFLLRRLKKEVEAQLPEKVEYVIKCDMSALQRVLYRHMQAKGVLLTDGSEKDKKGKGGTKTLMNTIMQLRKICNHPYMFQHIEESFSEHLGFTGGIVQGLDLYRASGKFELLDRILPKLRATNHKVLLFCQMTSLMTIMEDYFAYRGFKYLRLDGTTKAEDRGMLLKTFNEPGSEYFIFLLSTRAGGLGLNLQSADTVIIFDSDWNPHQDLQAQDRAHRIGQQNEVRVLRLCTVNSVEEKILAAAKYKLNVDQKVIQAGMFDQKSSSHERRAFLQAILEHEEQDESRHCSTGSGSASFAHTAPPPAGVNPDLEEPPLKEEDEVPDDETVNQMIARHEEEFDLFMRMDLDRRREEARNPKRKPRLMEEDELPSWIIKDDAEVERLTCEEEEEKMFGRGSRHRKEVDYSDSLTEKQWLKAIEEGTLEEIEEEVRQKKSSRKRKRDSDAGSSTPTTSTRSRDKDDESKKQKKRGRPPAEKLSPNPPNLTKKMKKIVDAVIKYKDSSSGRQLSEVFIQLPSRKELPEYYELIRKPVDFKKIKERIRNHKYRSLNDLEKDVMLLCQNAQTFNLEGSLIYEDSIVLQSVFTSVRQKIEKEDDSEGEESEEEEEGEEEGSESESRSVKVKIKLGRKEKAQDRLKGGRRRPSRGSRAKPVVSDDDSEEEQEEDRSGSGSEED
# Sequence of BRM (P51531 whole entry): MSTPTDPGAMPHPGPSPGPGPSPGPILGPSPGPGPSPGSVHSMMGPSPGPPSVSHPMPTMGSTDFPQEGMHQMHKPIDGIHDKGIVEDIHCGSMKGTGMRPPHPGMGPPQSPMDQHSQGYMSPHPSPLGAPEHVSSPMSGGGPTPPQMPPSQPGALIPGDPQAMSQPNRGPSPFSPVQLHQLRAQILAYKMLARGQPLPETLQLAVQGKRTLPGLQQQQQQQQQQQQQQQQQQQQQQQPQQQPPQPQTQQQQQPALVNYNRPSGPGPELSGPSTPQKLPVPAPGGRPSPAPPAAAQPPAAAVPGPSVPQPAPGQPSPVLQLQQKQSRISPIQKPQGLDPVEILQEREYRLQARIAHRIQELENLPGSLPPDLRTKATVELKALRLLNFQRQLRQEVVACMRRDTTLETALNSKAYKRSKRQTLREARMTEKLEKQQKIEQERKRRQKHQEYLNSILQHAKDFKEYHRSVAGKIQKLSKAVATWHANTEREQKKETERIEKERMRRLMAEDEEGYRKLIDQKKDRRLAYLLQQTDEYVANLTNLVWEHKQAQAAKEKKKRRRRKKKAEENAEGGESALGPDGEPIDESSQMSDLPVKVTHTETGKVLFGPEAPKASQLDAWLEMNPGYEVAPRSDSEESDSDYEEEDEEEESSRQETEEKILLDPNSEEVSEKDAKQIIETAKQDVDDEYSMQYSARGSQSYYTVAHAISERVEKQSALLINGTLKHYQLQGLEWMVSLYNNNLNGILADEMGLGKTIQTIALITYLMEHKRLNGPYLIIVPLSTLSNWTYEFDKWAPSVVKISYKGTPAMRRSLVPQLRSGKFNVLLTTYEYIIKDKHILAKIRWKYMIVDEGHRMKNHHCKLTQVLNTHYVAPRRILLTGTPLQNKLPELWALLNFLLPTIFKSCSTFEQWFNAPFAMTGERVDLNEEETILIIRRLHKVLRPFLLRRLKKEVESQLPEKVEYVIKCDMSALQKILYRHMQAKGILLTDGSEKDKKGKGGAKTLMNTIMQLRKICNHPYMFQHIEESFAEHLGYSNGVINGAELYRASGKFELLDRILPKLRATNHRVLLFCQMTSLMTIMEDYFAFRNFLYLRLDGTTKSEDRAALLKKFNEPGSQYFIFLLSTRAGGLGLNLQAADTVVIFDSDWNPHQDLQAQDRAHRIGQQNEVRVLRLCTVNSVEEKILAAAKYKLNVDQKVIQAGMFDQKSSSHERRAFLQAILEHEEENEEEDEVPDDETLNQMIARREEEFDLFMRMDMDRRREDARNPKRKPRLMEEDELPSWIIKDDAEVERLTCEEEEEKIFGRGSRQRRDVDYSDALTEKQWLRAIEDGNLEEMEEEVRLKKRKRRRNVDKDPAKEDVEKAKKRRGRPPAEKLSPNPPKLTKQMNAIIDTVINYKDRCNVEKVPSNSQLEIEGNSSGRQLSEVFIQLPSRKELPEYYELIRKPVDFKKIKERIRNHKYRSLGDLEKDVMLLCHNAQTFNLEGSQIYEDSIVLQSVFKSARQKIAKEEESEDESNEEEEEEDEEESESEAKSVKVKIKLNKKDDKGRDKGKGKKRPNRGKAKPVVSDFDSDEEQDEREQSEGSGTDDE
SMILES,BRM Max % Inhibition (BRM),IC50 (BRM),IC50 (BRG-1),Emax (BRG-1)
"C[C@@H]1CN(c2cccc(-c3csc(NC(=O)CNC(=O)c4cccc(C5(CO)CC5)c4)n3)n2)C[C@H](C)O1 [Compound 182, N-[2-[[4-[6-[(cis)-2,6-dimethylmorpholin-4-yl]-2-pyridyl]thiazol-2-yl]amino]-2-oxo-ethyl]-3-[1-(hydroxymethyl)cyclopropyl]benzamide]",>95%,< 0.1 µM,0.1 to 1 µM,> 90%
"C[C@@H]1CN(c2cccc(-c3csc(NC(=O)CNC(=O)c4cccc(C5(F)COC5)c4)n3)c2)C[C@H](C)O1 [Compound 183, N-(2-((4-(3-((cis)-2,6-dimethylmorpholino)phenyl)thiazol-2-yl)amino)-2-oxoethyl)-3-(3-fluorooxetan-3-yl)benzamide]",>90%,0.1 to 1 µM,1 to 5 µM,> 70%
"C[C@@H]1CN(c2cccc(-c3csc(NC(=O)CNC(=O)c4cccc(C5(O)COC5)c4)n3)c2)C[C@H](C)O1 [Compound 184, N-(2-((4-(3-((2R,6S)-2,6-dimethylmorpholino)phenyl)thiazol-2-yl)amino)-2-oxoethyl)-3-(3-hydroxyoxetan-3-yl)benzamide]",>90%,0.1 to 1 µM,1 to 5 µM,> 80%
"Cn1ncc(-c2cccc(-c3csc(NC(=O)CNC(=O)c4cccc(C(C)(C)CO)c4)n3)c2)n1 [Compound 185, 3-(1-hydroxy-2-methylpropan-2-yl)-N-(2-((4-(3-(2-methyl-2H-1,2,3-triazol-4-yl)phenyl)thiazol-2-yl)amino)-2-oxoethyl)benzamide]",>95%,0.1 to 1 µM,1 to 5 µM,> 80%
"C[C@@H]1CN(c2cccc(-c3csc(NC(=O)CNC(=O)c4ccc5c(c4)[C@@]4(CCC[C@@H]4O)CC5)n3)c2)C[C@H](C)O1 [Compound 186, (1R,2S)-N-(2-((4-(3-((cis)-2,6-dimethylmorpholino)phenyl)thiazol-2-yl)amino)-2-oxoethyl)-2-hydroxy-2′,3′-dihydrospiro[cyclopentane-1,1′-indene]-6′-carboxamide]",>95%,< 0.1 µM,1 to 5 µM,> 70%
"C[C@@H]1CN(c2cccc(-c3csc(NC(=O)CNC(=O)c4cccc(C5(C)COC5)c4)n3)n2)C[C@H](C)O1 [Compound 187, N-[2-[[4-[6-[(cis)-2,6-dimethylmorpholin-4-yl]-2-pyridyl]thiazol-2-yl]amino]-2-oxo-ethyl]-3-(3-methyloxetan-3-yl)benzamide]",>95%,< 0.1 µM,0.1 to 1 µM,> 70%
"C[C@@H]1CN(c2cccc(-c3csc(NC(=O)CNC(=O)c4ccc5c(c4)[C@@]4(CCC[C@H]4O)CC5)n3)c2)C[C@H](C)O1 [Compound 188, (1R,2R)-N-(2-((4-(3-((cis)-2,6-dimethylmorpholino)phenyl)thiazol-2-yl)amino)-2-oxoethyl)-2-hydroxy-2′,3′-dihydrospiro[cyclopentane-1,1′-indene]-6′-carboxamide]",>90%,0.1 to 1 µM,1 to 5 µM,> 50%
"C[C@@H]1CN(c2cccc(-c3csc(NC(=O)CNC(=O)c4ccc5c(c4)[C@]4(CCC[C@@H]4O)CC5)n3)c2)C[C@H](C)O1 [Compound 189, (1S,2S)-N-(2-((4-(3-((cis)-2,6-dimethylmorpholino)phenyl)thiazol-2-yl)amino)-2-oxoethyl)-2-hydroxy-2′,3′-dihydrospiro[cyclopentane-1,1′-indene]-6′-carboxamide]",>90%,0.1 to 1 µM,1 to 5 µM,> 50%
"Cc1cnc(O)c(-c2cccc(-c3csc(NC(=O)CNC(=O)c4ccc5c(c4)[C@@](C)(CO)CC5)n3)n2)c1 [Compound 190, (S)-N-(2-((4-(2′-hydroxy-5′-methyl-[2,3′-bipyridin]-6-yl)thiazol-2-yl)amino)-2-oxoethyl)-3-(hydroxymethyl)-3-methyl-2,3-dihydro-1H-indene-5-carboxamide]",>90%,0.1 to 1 µM,0.1 to 1 µM,> 70%
"C[C@]1(CO)CCc2ccc(C(=O)NCC(=O)Nc3nc(-c4cccc(-c5cccnc5O)n4)cs3)cc21 [Compound 191, (S)-N-(2-((4-(2′-hydroxy-[2,3′-bipyridin]-6-yl)thiazol-2-yl)amino)-2-oxoethyl)-3-(hydroxymethyl)-3-methyl-2,3-dihydro-1H-indene-5-carboxamide]",>90%,0.1 to 1 µM,0.1 to 1 µM,> 80%
"Cn1ccc(-c2cccc(-c3csc(NC(=O)CNC(=O)c4ccc5c(c4)[C@@](C)(CO)CC5)n3)n2)n1 [Compound 192, (3S)-3-(hydroxymethyl)-3-methyl-N-[2-[[4-[6-(1-methylpyrazol-3-yl)-2-pyridyl]thiazol-2-yl]amino]-2-oxo-ethyl]indane-5-carboxamide]",>90%,0.1 to 1 µM,1 to 5 µM,> 60%
"C[C@@H]1CN(c2cccc(-c3csc(NC(=O)CNC(=O)c4ccc5c(c4)C4(CCCC4=O)CC5)n3)c2)C[C@H](C)O1 (stereo partly drawn) [Compound 195, N-(2-((4-(3-((cis)-2,6-dimethylmorpholino)phenyl)thiazol-2-yl)amino)-2-oxoethyl)-2-oxo-2′,3′-dihydrospiro[cyclopentane-1,1′-indene]-6′-carboxamide]",>95%,0.1 to 1 µM,1 to 5 µM,> 70%
"CC(C)(C)c1cccc(C(=O)NCC(=O)Nc2nc(-c3cccc(N4CCC4)c3)cs2)c1 [Compound 196, N-(2-((4-(3-(azetidin-1-yl)phenyl)thiazol-2-yl)amino)-2-oxoethyl)-3-(tert-butyl)benzamide]",>90%,0.1 to 1 µM,1 to 5 µM,> 60%
C[C@@]1(CO)CCc2c(C(=O)NCC(=O)Nc3nc(-c4cccc(-c5ccncc5)c4)cs3)cccc21 [Compound 197],–,1 to 5 µM,> 5 µM,< 30%
"C[C@@H]1CN(c2cc(F)cc(-c3csc(NC(=O)CNC(=O)c4ccc(F)c(C(C)(C)CO)c4)n3)c2)C[C@H](C)O1 [Compound 198, N-(2-((4-(3-((cis)-2,6-dimethylmorpholino)-5-fluorophenyl)thiazol-2-yl)amino)-2-oxoethyl)-4-fluoro-3-(1-hydroxy-2-methylpropan-2-yl)benzamide]",>95%,< 0.1 µM,0.1 to 1 µM,> 95%
"C[C@@H]1CN(c2cc(F)cc(-c3csc(NC(=O)CNC(=O)c4ccc(Cl)c(C(C)(C)CO)c4)n3)c2)C[C@H](C)O1 [Compound 199, 4-chloro-N-[2-[[4-[3-[(cis)-2,6-dimethylmorpholin-4-yl]-5-fluoro-phenyl]thiazol-2-yl]amino]-2-oxo-ethyl]-3-(2-hydroxy-1,1-dimethyl-ethyl)benzamide]",>95%,< 0.1 µM,< 0.1 µM,> 95%
"C[C@@H]1CN(c2cccc(-c3csc(NC(=O)CNC(=O)c4ccc(F)c(C(C)(C)CO)c4)n3)c2)C[C@H](C)O1 [Compound 200, N-(2-((4-(3-((cis)-2,6-dimethylmorpholino)phenyl)thiazol-2-yl)amino)-2-oxoethyl)-4-fluoro-3-(1-hydroxy-2-methylpropan-2-yl)benzamide]",>95%,< 0.1 µM,0.1 to 1 µM,> 80%
